Reference: US10709707B2, “Methods of treating ocular conditions” (Oyster Point Pharma, Inc., priority 2016, dated 2020)
Values joined by “and” are separate entries in the source; they are usually repeats but may differ in a detail not shown here. Equal values may be shown once.

Experiments:
[1] = Single dose pharmacokinetics studies; type: in vivo; details: Swiss (mouse), Sprague-Dawley (rat), cynomolgus (monkey), plasma, oral, rat and monkey, read-out: time to reach maximum concentration (Tmax)
Experimental: In a monkey study, [^14C]-Compound 1 was given at 10 mg/kg orally or 5 mg/kg by iv infusion. Oral bioavailability in this study was about 30%.

[2] = Cardiovascular safety, guinea pig iv; type: in vivo; details: guinea pig, in vivo; intravenous
[3] = tested on: blood pressure, heart rate, ECG; experiment: Cardiovascular safety, guinea pig iv; type: in vivo
[4] = Clinical studies with oral formulation; type: in vivo
Description: The drug substance for Compound 1 nasal spray was previously used in clinical trials as an oral formulation. […] Compound 1 is re-formulated as a nasal spray.

[5] = tested on: formalin test; experiment: Analgesic effects, formalin test; type: in vivo, Mouse: CD-1; details: po; Compound 1 0.1, 1 and 10 mg/kg, Aspirin 100 mg/kg, Morphine 30 mg/kg
[6] = Stability study of drug substance; type: physicochemical
Experimental: A previous cGMP lot of Compound 1 was manufactured.
There was a slight decrease in assay value below the 98% specification at 6 month 40° C./75% RH and 9 month 30° C./65% RH. However, based on the minimal change at accelerated conditions and the stability of the real time data, the drug substance is currently considered to be stable for at least 36 months.

[7] = biological target: T1, ganglionic receptor (α3β4) (Homo sapiens, UniProt P30926+P32297); experiment: Receptor binding ganglionic receptor, SH-SY5Y membranes
T1 construct: endogenous in cells
T1 sequence (P32297 32-505): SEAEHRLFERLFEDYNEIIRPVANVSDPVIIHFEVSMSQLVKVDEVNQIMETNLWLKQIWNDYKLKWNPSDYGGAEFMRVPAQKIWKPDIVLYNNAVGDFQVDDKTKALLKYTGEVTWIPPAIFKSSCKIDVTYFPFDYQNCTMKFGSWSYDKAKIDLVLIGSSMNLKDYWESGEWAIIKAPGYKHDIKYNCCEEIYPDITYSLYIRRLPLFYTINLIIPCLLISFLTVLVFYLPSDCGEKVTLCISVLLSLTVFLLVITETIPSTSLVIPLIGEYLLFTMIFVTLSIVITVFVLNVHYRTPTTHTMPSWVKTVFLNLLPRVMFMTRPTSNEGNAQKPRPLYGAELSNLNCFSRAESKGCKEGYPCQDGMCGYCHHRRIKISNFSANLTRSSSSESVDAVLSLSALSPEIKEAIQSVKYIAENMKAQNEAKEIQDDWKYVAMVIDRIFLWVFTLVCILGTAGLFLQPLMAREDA
T1 sequence (P30926 22-498): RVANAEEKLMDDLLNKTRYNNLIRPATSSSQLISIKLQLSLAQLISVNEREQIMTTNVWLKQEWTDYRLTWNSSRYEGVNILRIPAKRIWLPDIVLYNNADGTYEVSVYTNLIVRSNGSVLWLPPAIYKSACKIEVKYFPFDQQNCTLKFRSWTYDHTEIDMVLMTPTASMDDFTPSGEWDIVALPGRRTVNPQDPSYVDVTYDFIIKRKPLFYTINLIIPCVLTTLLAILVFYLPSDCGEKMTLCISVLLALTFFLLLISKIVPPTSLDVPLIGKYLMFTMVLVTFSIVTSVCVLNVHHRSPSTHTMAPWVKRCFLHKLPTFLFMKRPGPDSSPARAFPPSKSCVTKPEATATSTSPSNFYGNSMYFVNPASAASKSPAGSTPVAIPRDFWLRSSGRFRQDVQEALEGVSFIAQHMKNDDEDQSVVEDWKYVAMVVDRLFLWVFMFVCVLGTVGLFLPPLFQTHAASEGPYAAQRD

[8] = 13-week repeat-dose oral toxicity in rats; type: in vivo, rat
Experimental: Compound 1 was given to rats once daily for at least 13 weeks via oral gavage at doses of 30, 100, or 300 mg/kg/day. Two of 15 females receiving 300 mg/kg/day died. Clinical signs in males and females in this high-dose group included; reduced food consumption, anogenital staining, lacrimation, chromodacryorrhea, and tremors. Laboratory results included marginally lower RBC mass that correlated with elevated reticulocyte counts with recovery; elevated liver enzymes and bilirubin throughout the dosing period, with evidence of resolution during recovery urinary changes, including increased urine volume, elevated urinary protein, and higher bilirubin and urobilinogen, with resolution during recovery. Rats receiving doses of 100 mg/kg/day and higher had clinical signs that included excessive salivation, tan brown muzzle, closed or partially closed eyelids, and reduced body weight. Laboratory results included elevated WBC (lymphocytes and neutrophils), with recovery; elevated bilirubin; and a slight decrease in total serum protein (globulins and albumin). […] At doses ≥100 mg/kg/day, microscopic findings of centrilobular hepatocellular hypertrophy, medullary adrenal gland cell hypertrophy, mucosal epithelial cell hyperplasia of the small intestine, and increased extramedullary hematopoiesis and hemosiderin deposits in the red pulp of the spleen were observed. […] Accordingly, the NOAEL was considered to be 30 mg/kg/day. […] AUC and Cmax increased between Day 1 and Day 29.

[9] = biological target: a6b3b4a5 (Homo sapiens, UniProt P30926+Q15825); experiment: Receptor binding a6b3b4a5
Chain of a6b3b4a5 (Q15825 26-494): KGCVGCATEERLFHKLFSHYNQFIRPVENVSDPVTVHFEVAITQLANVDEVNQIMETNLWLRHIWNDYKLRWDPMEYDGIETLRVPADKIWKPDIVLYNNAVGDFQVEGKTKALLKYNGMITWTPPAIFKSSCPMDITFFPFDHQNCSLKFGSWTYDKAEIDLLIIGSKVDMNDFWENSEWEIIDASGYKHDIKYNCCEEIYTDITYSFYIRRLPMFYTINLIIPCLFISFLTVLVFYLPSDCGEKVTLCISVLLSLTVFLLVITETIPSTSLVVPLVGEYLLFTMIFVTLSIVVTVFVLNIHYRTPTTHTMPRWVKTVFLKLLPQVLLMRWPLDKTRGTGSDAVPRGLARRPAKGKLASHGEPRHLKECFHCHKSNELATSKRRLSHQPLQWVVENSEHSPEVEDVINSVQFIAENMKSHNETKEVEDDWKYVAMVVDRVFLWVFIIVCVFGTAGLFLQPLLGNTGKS
Chain of a6b3b4a5 (P30926 22-498): as the sequence (P30926 22-498) above
Chain of a6b3b4a5 (Q05901 25-458 partner limits assumed): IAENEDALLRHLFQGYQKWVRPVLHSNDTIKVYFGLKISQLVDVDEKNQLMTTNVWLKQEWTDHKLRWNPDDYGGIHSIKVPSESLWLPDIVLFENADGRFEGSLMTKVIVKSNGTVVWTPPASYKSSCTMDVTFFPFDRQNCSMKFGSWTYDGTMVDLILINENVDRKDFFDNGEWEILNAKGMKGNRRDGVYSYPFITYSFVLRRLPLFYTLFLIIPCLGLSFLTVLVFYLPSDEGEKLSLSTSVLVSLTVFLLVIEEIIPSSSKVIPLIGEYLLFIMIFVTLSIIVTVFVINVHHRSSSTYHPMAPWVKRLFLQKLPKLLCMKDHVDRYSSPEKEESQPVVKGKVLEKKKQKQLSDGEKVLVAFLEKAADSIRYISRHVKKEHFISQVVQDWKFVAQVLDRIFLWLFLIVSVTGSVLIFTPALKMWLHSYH
Chain of a6b3b4a5 (P30532 23-468 partner): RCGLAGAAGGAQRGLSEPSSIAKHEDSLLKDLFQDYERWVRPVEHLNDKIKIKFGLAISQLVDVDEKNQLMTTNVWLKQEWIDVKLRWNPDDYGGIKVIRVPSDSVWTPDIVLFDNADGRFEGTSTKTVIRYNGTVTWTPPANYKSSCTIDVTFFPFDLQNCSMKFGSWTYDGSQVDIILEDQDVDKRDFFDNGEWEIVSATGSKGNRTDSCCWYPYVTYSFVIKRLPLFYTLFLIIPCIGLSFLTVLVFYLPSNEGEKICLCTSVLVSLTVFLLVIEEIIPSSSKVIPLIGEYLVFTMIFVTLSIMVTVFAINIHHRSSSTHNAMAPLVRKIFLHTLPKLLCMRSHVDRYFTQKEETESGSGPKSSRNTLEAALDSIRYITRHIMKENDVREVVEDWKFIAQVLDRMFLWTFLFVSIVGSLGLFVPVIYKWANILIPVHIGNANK

[10] = Distribution coefficient; type: physicochemical; details: pH 7.4
[11] = single-dose nasal spray tolerability and PK in rabbits; type: in vivo, New Zealand White rabbit; details: male rabbits
Experimental: The potential toxicity and TK of Compound 1 nasal spray was assessed following a single spray (100 μL) of either 2% or 5% Compound 1 in the right nostril of male New Zealand White rabbits (N=36). Phosphate buffered solution (PBS) served as the control and was sprayed (100 μL) in the left nostril. Bioanalytical and histopathological analyses were conducted at 1, 3, 6, 9, and 24 h post-treatment. Prior to sacrifice, the intranasal/nasal area of each animal was assessed using the Draize Classification System for Scoring Skin Irritation.

[12] = biological target: a6/a3b2b3 (Homo sapiens, UniProt P17787+P32297+Q15825); experiment: Receptor binding a6/a3b2b3
Chain of a6/a3b2b3 (Q15825+P32297 fused with the stated changes): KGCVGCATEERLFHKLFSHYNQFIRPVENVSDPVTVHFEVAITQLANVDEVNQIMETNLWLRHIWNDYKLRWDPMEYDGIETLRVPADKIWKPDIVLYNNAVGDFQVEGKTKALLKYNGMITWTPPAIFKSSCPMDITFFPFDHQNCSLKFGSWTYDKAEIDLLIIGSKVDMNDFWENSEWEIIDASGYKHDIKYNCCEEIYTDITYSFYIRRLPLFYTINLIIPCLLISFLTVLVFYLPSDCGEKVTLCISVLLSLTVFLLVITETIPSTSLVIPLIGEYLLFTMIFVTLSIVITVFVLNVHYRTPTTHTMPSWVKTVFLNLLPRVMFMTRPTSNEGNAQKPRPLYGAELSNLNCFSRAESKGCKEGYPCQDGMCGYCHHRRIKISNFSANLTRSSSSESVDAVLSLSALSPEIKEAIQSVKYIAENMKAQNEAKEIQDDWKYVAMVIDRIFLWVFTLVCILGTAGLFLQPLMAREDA
Chain of a6/a3b2b3 (P17787 26-502): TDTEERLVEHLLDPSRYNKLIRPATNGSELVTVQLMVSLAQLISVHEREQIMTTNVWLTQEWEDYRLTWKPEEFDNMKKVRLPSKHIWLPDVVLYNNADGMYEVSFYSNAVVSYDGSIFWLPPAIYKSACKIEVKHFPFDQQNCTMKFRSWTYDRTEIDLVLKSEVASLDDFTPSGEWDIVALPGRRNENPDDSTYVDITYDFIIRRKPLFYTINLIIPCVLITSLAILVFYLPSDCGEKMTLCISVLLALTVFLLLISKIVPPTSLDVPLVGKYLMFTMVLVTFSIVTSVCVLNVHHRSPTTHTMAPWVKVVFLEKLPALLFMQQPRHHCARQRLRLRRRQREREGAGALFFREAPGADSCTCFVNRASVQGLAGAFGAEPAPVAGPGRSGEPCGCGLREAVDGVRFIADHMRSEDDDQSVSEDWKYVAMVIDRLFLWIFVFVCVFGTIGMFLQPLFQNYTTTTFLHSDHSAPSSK
Chain of a6/a3b2b3 (Q05901 25-458 partner limits assumed): as the sequence (Q05901 25-458 partner limits assumed) above

[13] = tested on: Rabbit Purkinje fibers; experiment: Cardiovascular safety, rabbit Purkinje fibers in vitro
[14] = female, rat, in vivo, po, 30 mg/kg/day
[15] = male, rat, in vivo, po, 30 mg/kg/day

C(=C\[C@H]1CCNC1)/c1cncnc1 [Compound 1, (R)-5-((E)-2-pyrrolidin-3-ylvinyl)pyrimidine]
Tmax [1]: 0.167 to 2.25 h | MTD [2]: 0.3 mg/kg | effects on QTc ([3]; 1 mg/kg iv): doses up to 0.3 mg/kg, mild and reversible | lethality ([3]; 10 mg/kg iv): 10 mg/kg was lethal. | peak increase in heart rate ([3]; 1, 3, and 10 mg/kg iv): rate was 41 beats per minute. | peak increase in systolic blood pressure ([3]; 1, 3, and 10 mg/kg iv): 58 mmHg; and the peak increase in heart | time in which effects resolved ([3]; 1 and 3 mg/kg iv): 3 min | effects on QTc/ECG ([3]; 3 and 10 mg/kg iv): effects on QTc at 1 mg/kg, and severe | effects on ECGs ([3]; doses up to 0.3 mg/kg iv): Compound 1 caused no effects on ECGs at | efficacy in clinical studies [4]: failed to reach efficacy endpoints | safety in clinical studies [4]: considered safe | analgesic effects after formalin injection, Day 1 [5]: mg/kg) and Aspirin at 100 mg/kg failed | assay value ([6]; 6 month, 40° C./75% RH): < 98% | assay value ([6]; 9 month, 30° C./65% RH): < 98% | Assay (HPLC-UV) ([6]; 25° C./60% RH, 1 M): 102.4% | Related Substances, RRT = 0.26 ([6]; 25° C./60% RH, 1 M): 0.09 % w/w | Total Related Substances ([6]; 25° C./60% RH, 1 M): 0.09% | Water Content (Karl Fischer) ([6]; 25° C./60% RH, 1 M): 12.10 % w/w | Assay (HPLC-UV) ([6]; 25° C./60% RH, 3 M): 100.2% | Related Substances, RRT = 0.26 ([6]; 25° C./60% RH, 3 M): 0.09 % w/w | Total Related Substances ([6]; 25° C./60% RH, 3 M): 0.09% | Water Content (Karl Fischer) ([6]; 25° C./60% RH, 3 M): 12.25 % w/w | Assay (HPLC-UV) ([6]; 25° C./60% RH, 6 M): 98.9% | Total Related Substances ([6]; 25° C./60% RH, 6 M): 0.05% | Water Content (Karl Fischer) ([6]; 25° C./60% RH, 6 M): 12.04 % w/w | Assay (HPLC-UV) ([6]; 25° C./60% RH, 9 M): 99.7% | Related Substances, RRT = 0.26 ([6]; 25° C./60% RH, 9 M): 0.09 % w/w | Total Related Substances ([6]; 25° C./60% RH, 9 M): 0.12% | Water Content (Karl Fischer) ([6]; 25° C./60% RH, 9 M): 11.52 % w/w | Assay (HPLC-UV) ([6]; 25° C./60% RH, 12 M): 101.2% | Chiral Purity ([6]; 25° C./60% RH, 12 M): 100 % ee | Related Substances, RRT = 0.18 ([6]; 25° C./60% RH, 12 M): 0.10 % w/w | Related Substances, RRT = 0.88 ([6]; 25° C./60% RH, 12 M): 0.05 % w/w | Total Related Substances ([6]; 25° C./60% RH, 12 M): 0.16% | Water Content (Karl Fischer) ([6]; 25° C./60% RH, 12 M): 11.52 % w/w | Assay (HPLC-UV) ([6]; 25° C./60% RH, 18 M): 100.4% | Related Substances, RRT = 0.26 ([6]; 25° C./60% RH, 18 M): 0.07 % w/w | Total Related Substances ([6]; 25° C./60% RH, 18 M): 0.07% | Water Content (Karl Fischer) ([6]; 25° C./60% RH, 18 M): 11.50 % w/w | Assay (HPLC-UV) ([6]; 25° C./60% RH, 24 M): 100.0% | Chiral Purity ([6]; 25° C./60% RH, 24 M): 100 % ee | Related Substances, RRT = 0.26 ([6]; 25° C./60% RH, 24 M): 0.05 % w/w | Total Related Substances ([6]; 25° C./60% RH, 24 M): 0.05% | Water Content (Karl Fischer) ([6]; 25° C./60% RH, 24 M): 11.42 % w/w | Assay (HPLC-UV) ([6]; 25° C./60% RH, 36 M): 99.7% | Chiral Purity ([6]; 25° C./60% RH, 36 M): 100 % ee | Related Substances, RRT = 0.26 ([6]; 25° C./60% RH, 36 M): 0.04 % w/w | Total Related Substances ([6]; 25° C./60% RH, 36 M): 0.04% | Water Content (Karl Fischer) ([6]; 25° C./60% RH, 36 M): 11.53 % w/w | Assay (HPLC-UV) ([6]; 25° C./60% RH, Initial): 100.9% | Chiral Purity ([6]; 25° C./60% RH, Initial): 100 % ee | Related Substances, RRT = 0.26 ([6]; 25° C./60% RH, Initial): 0.05 % w/w | Total Related Substances ([6]; 25° C./60% RH, Initial): 0.05% | Water Content (Karl Fischer) ([6]; 25° C./60% RH, Initial): 11.36 % w/w | time for which drug substance is considered stable ([6]; real time 25° C./60% RH data): at least 36 months | Ki ([7]; Human ganglion-type (a3b4*), assay and tissue type not given): 8800 nM | Ki ([7]; [3H]-epibatidine, SH-SY5Y membranes): 600 nM and 620 nM | NOAEL at 13 weeks ([8]; both sexes, in vivo, 13-week rat study, oral, as summarised): 30 mg/kg | Tmax ([8]; both sexes, rat, in vivo, po): 0.5 to 2 h | NOAEL at 13 weeks ([8]; both sexes, rat, in vivo, rats, oral gavage once daily, 13 weeks): 30 mg/kg/day | AUC [8, 14]: 10200 ng·h/mL | Cmax [8, 14]: 3150 ng/mL | deaths ([8]; females, 300 mg/kg/day): Two of 15 | incidence of minimal hepatocellular hypertrophy ([8]; male, rat, in vivo, 30 mg/kg/day, 13 weeks): 7 of 10 | AUC [8, 15]: 12100 ng·h/mL | Cmax [8, 15]: 2570 ng/mL | Ki [9]: 1100 nM | logD [10]: < 1 | intranasal/nasal assessment (Draize) ([11]; single 100 μL spray of 2% or 5%): no signs of erythema, edema, eschar formation or discharge | clinical signs ([11]; single 100 μL spray of 2% or 5% in right nostril): No clinical signs were observed | histopathology of the nasal cavity ([11]; single 100 μL spray of 2% or 5%, 1 to 24 h post-treatment): no macroscopic or microscopic findings | Ki [12]: 240 nM | lengthening of action potential duration ([13]; 30 μM): 7% | lengthening of action potential duration ([13]; 100 μM): 20% | resting membrane potential, action potential amplitude, Vmax ([13]; any concentration (3-100 μM)): no effect on resting membrane potential, | action potential duration ([13]; at 3 and 10 μM): no effect | action potential duration ([13]; at 30 and 100 μM, concentration dependent): dependent lengthening of the action
